Publication PMC3098941 (ACS chemical biology, 2011)

How the values were obtained:
Assay type in all cases: binding
CDK2-ANS complex = CDK2-ANS complex (Homo sapiens, UniProt P24941); test: Quenching of CDK2-ANS fluorescence by ligands; details: 50 μM ANS; for effect on CDK2-ANS fluorescence yield: concentrations as high as 300 μM, 1.6 μM CDK2
Aurora A = molecular target: T1, Aurora A (Homo sapiens, UniProt O14965); test: ANS fluorescence titration of Aurora A; details: read-out: apparent Kd of ANS for Aurora A; Aurora A 5.8 μM, slit widths 10/10
T1 sequence (O14965 123-380): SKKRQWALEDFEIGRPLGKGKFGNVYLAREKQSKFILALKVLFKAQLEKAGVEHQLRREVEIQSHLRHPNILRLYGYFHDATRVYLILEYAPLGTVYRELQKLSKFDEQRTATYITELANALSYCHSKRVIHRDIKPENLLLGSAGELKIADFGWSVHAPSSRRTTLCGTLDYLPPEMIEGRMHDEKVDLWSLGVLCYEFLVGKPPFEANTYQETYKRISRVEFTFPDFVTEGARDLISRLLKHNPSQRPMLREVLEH

Akt1 = Akt1 (Homo sapiens, UniProt P31749); test: ANS fluorescence titration of Akt; details: up to 100 μM ANS
Rock1 = Rock1 (Homo sapiens, UniProt Q13464); test: ANS fluorescence titration of Rock 1; details: up to 100 μM ANS
Rock1, sequence (Q13464 5-415): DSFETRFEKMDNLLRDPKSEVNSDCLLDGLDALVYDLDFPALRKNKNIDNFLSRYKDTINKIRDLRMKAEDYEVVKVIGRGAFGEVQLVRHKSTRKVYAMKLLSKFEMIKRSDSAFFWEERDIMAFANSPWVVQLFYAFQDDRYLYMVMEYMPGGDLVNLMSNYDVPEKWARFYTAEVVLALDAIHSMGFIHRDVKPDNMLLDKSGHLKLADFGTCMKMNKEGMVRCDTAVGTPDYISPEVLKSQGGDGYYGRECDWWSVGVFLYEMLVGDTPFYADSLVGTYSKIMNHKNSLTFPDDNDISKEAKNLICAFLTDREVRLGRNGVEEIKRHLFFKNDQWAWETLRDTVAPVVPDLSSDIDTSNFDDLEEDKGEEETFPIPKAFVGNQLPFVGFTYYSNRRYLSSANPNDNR

Akt1, sequence (P31749 whole entry): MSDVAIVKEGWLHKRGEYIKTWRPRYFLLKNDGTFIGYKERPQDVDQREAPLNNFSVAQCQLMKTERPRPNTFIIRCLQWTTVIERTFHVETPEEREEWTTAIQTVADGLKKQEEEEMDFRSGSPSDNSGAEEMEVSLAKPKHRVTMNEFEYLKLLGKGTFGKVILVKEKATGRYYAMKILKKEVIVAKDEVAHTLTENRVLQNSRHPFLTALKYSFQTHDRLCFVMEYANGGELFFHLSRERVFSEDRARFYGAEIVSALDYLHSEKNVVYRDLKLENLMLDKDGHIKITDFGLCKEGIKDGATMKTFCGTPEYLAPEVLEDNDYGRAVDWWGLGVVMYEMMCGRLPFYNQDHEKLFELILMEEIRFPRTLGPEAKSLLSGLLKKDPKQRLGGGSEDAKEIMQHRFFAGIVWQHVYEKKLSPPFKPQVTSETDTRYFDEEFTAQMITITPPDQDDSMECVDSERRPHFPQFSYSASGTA

| Compound | effect on CDK2-ANS fluorescence yield (CDK2-ANS complex) | effect on CDK2-ANS fluorescence (CDK2-ANS complex; concentrations up to 100 μM) | Kd (Aurora A) | saturation of ANS fluorescence with Akt (Akt1) | saturation of ANS fluorescence with Rock 1 (Rock1) |
| --- | --- | --- | --- | --- | --- |
| Nc1ncnc2c1ncn2[C@@H]1O[C@H](COP(=O)(O)OP(=O)(O)OP(=O)(O)O)[C@@H](O)[C@H]1O [ATP] | only marginally affected | did not appear to affect | – | – | – |
| O=S(=O)(O)c1cccc2cccc(Nc3ccccc3)c12 [ANS, 8-anilino-1-naphthalene sulfonate] | – | – | 54 µM | saturation was not reached | saturation was not reached |
| COc1ccc(O)c(-c2nc(N)nc(N)n2)c1 [JWS648] | only marginally affected | – | – | – | – |
